pIC50: −log10 of the molar value.

For assay [1], the system named is mouse CLP model. Briefly: Acute model of CLP: vascular hyper-permeability (Evans blue extravasation). It is filed as in vivo. Here is the method:
Cecal ligation puncture (CLP) is a model of polymicrobial sepsis which consists of extruding fecal content in the abdominal cavity of the animals under anesthesia.
(§1) Two models were performed: • Acute model of CLP lasting 24 h to measure vascular hyper-permeability in lung, liver, kidney and heart tissue. The vascular hyper-permeability was followed by the extravasation of Evans blue injected intravenously and diffused and accumulated into the tissue. The vascular hyper-permeability was expressed as μg of Evans blue in 100 mg of dry tissue. • Chronic model of CLP lasting 8 days. CLP is performed on day 0 and the survival rate is followed for 8 consecutive days.
(§2) Mice were anesthetized with ketamine (80 mg kg^−1, i.p.) and xylazine (10 mg kg^−1, i.p.). A 1-1.5 cm abdominal midline incision was made, and the caecum was located and tightly ligated at half the distance between distal pole and the base of the caecum with 4-0 silk suture (mild grade). The caecum was punctured through-and-through once with a 21-gauge needle after medium ligation. A small amount of stool was extruded to ensure that the wounds were patent. Then the cecum was replaced in its original position within the abdomen, which was closed with sutures in layers. For negative control animals, a sham surgery was performed: sham-operated animals underwent identical laparotomy but without cecal ligation or puncture. The animals were resuscitated immediately after surgery with 1 mL subcutaneous normal saline and returned to their cages. Experiment was terminated at 24 hrs after CLP.
10 mice were included in each group.
Evans blue dye (0.1 mL at 40 mg/kg) was injected through each tail vein 30 minutes before euthanasia at 24 hours after CLP. Lung, kidney, liver and heart tissues are collected, and Evans blue was extracted in Formamide. The concentration of the Evans blue dye was calculated from a standard curve and expressed as μg/100 mg lung dry tissue. The data were analyzed by using commercially available software (Prism, version 8.3.0; GraphPad Software Inc., San Diego, CA). Different groups were compared with the one-way variance analysis (ANOVA) followed by the Dunnett test (e.g CLP group compared to treated groups). All data were expressed as a mean±SEM. The limit of the significance was taken as p values less than 0.05 (p<0.05).

The test system of assay [2] is mouse CLP model. As to the kind of experiment: Chronic model of CLP: survival rate. The assay is classed as in vivo. The method, then: as §1
as §2, with “On day 0, mice” for “Mice”, “cages.” for “cages. Experiment was terminated at 24 hrs after CLP.”
Compound 2 of WO 2019/161010 or its vehicle (0.5% natrosol 0.010% Tween 80) was given orally (5 ml/kg) at 30 mg/kg 2 h after CLP and once daily from day 1 to day 6. Adrecizumab, anti-adrenomedullin antibody, was given at 4 mg/kg i.v. only once, 1 h before CLP. 10 mice were included in each group.
In a second experiment, Compound 17 or its vehicle (0.5% natrosol 0.010% Tween 80) was given orally (5 ml/kg). Compound 17 was given at 10 mg/kg in two groups. In the first group, Compound 17 was given at 2 h after CLP and twice daily from day 1 to day 6. In the second group, Compound 17 was given at 24 h after CLP and twice daily from day 2 to day 6. 10 mice were included in each group.

Assay [3] concerns LPS aerosol induced lung edema. Briefly: LPS-induced vascular leakage in a mouse model (BALF total protein). The assay is classed as in vivo. The following applies: 4 h after LPS, average of two experiments. Here is the method: Mice are placed in a chamber and exposed to Lipopolysaccharide (LPS, known as endotoxin and found in outer membrane of Gram-negative bacteria such as Escherichia Coli) aerosol (0.8 mg/ml) for 30 min (or Phosphate-Buffered Saline, PBS as vehicle). The TRPC6 inhibitor compound 17 is given orally 12 h and 2 h before LPS challenge. The mice are euthanized 4 h after the end of the LPS aerosol exposure. Blood is collected for plasma exposure of the compound and the lungs are flushed with 0.8 ml PBS. The broncho-alveolar-lavage is centrifuged at 500 revolutions/min for 10 min and the supernatant is collected for the measurement of total protein according to Lowry measurement by absorbance at 660 nm. The mouse LPS experiment is repeated twice, and the data of each experiment are represented in FIG. 3.1 for the first experiment and FIG. 3.2 for the second experiment. FIG. 3.3 represents the average of the two experiments expressed in percent of the LPS group.
LPS aerosol induced lung edema is characterized by a significant accumulation of Broncho-Alveolar-Lavage protein (BALF protein). […]
FIG. 3.1 and FIG. 3.2 show the amount and FIG. 3.3 the percent of total protein in BALF (Broncho Alveolar Lavage Fluid) after LPS (LipoPolySaccharide) treatment without or after pretreatment with (+) compound 17 as evaluated along the following tabular scheme

The next assay addresses T1, TRPC6 (Homo sapiens, UniProt Q9Y210).
T1 sequence (Q9Y210 1-931): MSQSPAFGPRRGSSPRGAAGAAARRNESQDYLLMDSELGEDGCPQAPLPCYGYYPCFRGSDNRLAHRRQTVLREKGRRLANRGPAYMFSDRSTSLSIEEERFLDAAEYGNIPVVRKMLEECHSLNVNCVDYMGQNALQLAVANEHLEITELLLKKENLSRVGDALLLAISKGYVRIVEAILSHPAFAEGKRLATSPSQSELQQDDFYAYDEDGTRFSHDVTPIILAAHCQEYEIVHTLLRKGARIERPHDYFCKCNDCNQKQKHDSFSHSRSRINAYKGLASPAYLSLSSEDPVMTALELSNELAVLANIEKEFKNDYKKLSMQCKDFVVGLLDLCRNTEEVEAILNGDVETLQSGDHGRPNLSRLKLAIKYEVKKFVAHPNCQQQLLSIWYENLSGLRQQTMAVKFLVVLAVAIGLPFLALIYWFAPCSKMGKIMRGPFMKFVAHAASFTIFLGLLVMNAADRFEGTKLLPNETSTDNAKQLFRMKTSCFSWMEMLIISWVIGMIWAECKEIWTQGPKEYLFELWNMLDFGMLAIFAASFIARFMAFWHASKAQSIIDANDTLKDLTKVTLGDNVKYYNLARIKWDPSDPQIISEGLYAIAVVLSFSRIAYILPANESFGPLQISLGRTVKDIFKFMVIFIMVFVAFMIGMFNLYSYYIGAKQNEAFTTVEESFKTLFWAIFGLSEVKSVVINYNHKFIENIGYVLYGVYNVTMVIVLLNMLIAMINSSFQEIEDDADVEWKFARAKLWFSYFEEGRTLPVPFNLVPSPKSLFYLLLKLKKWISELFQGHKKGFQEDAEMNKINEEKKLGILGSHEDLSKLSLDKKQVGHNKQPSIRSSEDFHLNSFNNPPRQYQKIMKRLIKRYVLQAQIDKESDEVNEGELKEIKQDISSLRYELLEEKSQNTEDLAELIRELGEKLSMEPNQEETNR
As to the kind of experiment: in vitro Patch Clamp. It is filed as cell-based. For orientation: In patch-clamp work, channel activity is measured electrically.

The mark [4] stands for this setting: Example 1, prophylactic mode, 30 mg/kg orally 2 h before and 8 h after CLP.
Setting [5] is: Example 1, therapeutic mode, 30 mg/kg orally 2 h and 8 h after CLP.
Setting [6] is: Example 2, 30 mg/kg orally, therapeutic mode 2 and 8 h after CLP.
Setting [7] is: Example 2, 10 mg/kg orally, therapeutic mode 2 and 8 h after CLP.

Regarding `Nc1ccc(C2CCN(C(=O)c3ccc(Oc4ccc(C(F)(F)F)cc4)cc3)CC2)nn1` [Compound 2 of WO 2019/161010], the “inhibition of Evans blue concentration in heart” value in the assay with mouse CLP model [1] (Example 1, heart, therapeutic mode, 30 mg/kg orally 2 h and 8 h after CLP) amounted to 94%. The results for the “inhibition of Evans blue concentration in kidney” value with mouse CLP model [1] (setting [4]) and with mouse CLP model [1] (setting [5]) were 84% and 98%, respectively. Further, the results for the “inhibition of Evans blue concentration in liver” value in the assay with mouse CLP model [1] (setting [4]) and in the assay with mouse CLP model [1] (setting [5]) were 71% and 88%, respectively. For the same compound, the “inhibition of Evans blue concentration in lung” value was found to be 87% in the assay on mouse CLP model [1] (Example 1, lung, prophylactic mode, 30 mg/kg orally 2 h before and 8 h after CLP, 24 h after CLP); 87% in the assay on mouse CLP model [1] (Example 1, lung, therapeutic mode, 10 mg/kg orally 2 h and 8 h after CLP, 24 h after CLP); 100% in the assay with mouse CLP model [1] (Example 1, lung, therapeutic mode, 30 mg/kg orally 2 h and 8 h after CLP, 24 h after CLP). Besides, in the assay on mouse CLP model [1] (Example 2, heart, 30 mg/kg orally, therapeutic mode 2 and 8 h after CLP), the “reduction of Evans blue concentration in heart” value is 100%. Further, the “reduction of Evans blue concentration in kidney” value in the assay on mouse CLP model [1] (setting [6]) is given as 90%. Besides, the “reduction of Evans blue concentration in liver” value in the assay on mouse CLP model [1] (setting [6]) was 58%. In the assay with mouse CLP model [1] (Example 2, lung, 30 mg/kg orally, therapeutic mode 2 and 8 h after CLP), the “reduction of Evans blue concentration in lung tissue” value is recorded as 94%. Moreover, in the assay with mouse CLP model [2] (first experiment, 30 mg/kg orally 2 h after CLP and once daily from day 1 to day 6), the “survival rate at day 8” value is on record as 50%. Further, the “survival rate compared with adrecizumab” value in the assay on mouse CLP model [2] (first experiment, day 8) is on record as “significantly superior to adrecizumab survival rate”.
As for `COc1cc(C(=O)N2CCC(c3ccc(N)nn3)CC2)ncc1Oc1ccc(F)cc1` [Compound 17, [4-(6-Amino-pyridazin-3-yl)-piperidin-1-yl]-[5-(4-fluoro-phenoxy)-4-methoxy-pyridin-2-yl]-methanone], the “reduction of Evans blue concentration in heart” value amounted to 100% with mouse CLP model [1] (Example 2, heart, 3 mg/kg orally, therapeutic mode 2 and 8 h after CLP); 120% in the assay with mouse CLP model [1] (Example 2, heart, 10 mg/kg orally, therapeutic mode 2 and 8 h after CLP). For the same compound, the “reduction of Evans blue concentration in kidney” value with mouse CLP model [1] (setting [7]) is 95%. Further, in the assay with mouse CLP model [1] (setting [7]), the “reduction of Evans blue concentration in liver” value came to 48%. The “inhibition of Evans blue concentration in lung” value worked out at 65% in the assay on mouse CLP model [1] (Example 2, lung, 1 mg/kg orally, therapeutic mode 2 and 8 h after CLP); 90% in the assay on mouse CLP model [1] (Example 2, lung, 3 mg/kg orally, therapeutic mode 2 and 8 h after CLP); 100% with mouse CLP model [1] (Example 2, lung, 10 mg/kg orally, therapeutic mode 2 and 8 h after CLP). Moreover, in the assay on mouse CLP model [1] (summary of FIGS. 2.1 to 2.4 (CLP) and FIGS. 3.1 to 3.3 (LPS)), the vascular leakage entry is reported as “significantly reduces vascular leakage”. The “reduction of BALF protein concentration” value in assay [3] (3 mg/kg p.o. 12 h and 2 h before LPS aerosol) is 56%; in assay [3] (10 mg/kg p.o. 12 h and 2 h before LPS aerosol), 62%. Besides, the “survival rate at day 8” value with mouse CLP model [2] (second experiment, 10 mg/kg orally at 2 h after CLP and twice daily from day 1 to day 6) came to 60%; in the assay with mouse CLP model [2] (second experiment, 10 mg/kg orally at 24 h after CLP and twice daily from day 2 to day 6) it was 50%. For the same compound, the negative logarithm of the IC50 (pIC50) against TRPC6 was 7.72. The same compound showed a 90% effect concentration (IC90) at TRPC6 of 104 nM. At TRPC6, the “in vitro Patch Clamp IC75” value is 48 nM.
With “Adrecizumab: anti-adrenomedullin antibody”, in the assay with mouse CLP model [2] (first experiment, 4 mg/kg i.v. only once, 1 h before CLP), the “survival rate at day 8” value came out at 30%.

Usually pIC50 stands for the IC50 on a negative log10 scale, so that one unit is a factor of ten. Usually IC90 stands for the point of the concentration-response curve where the effect stands at 90%. A higher IC90 goes with weaker potency.

For the origin of these results see US20240408087A1, “TRPC6 INHIBITORY COMPOUNDS FOR TREATING SEPSIS” (Boehringer Ingelheim International GmbH, priority 2021, published 2024).
